Laboratory results as given in ChEMBL document CHEMBL3792311, “In vitro and in vivo activity of ML302F: a thioenolate inhibitor of VIM-subfamily metallo -lactamases” (Medchemcomm, 2016).
Calls of active or inactive are those of the source. No cut-off for these calls is given here.

What was measured:
Pseudomonas aeruginosa [1] = test: Potentiation of meropenem-induced antibacterial activity against VIM2 carbapenemase producing multidrug-resistant Pseudomonas aeruginosa 15 clinical isolate assessed as MIC of meropenem at 1:8 meropenem:compound ratio by broth microtiter dilution method; assay type: functional
Pseudomonas aeruginosa [2] = test: Potentiation of meropenem-induced antibacterial activity against VIM2 carbapenemase producing multidrug-resistant Pseudomonas aeruginosa 16 clinical isolate assessed as MIC of meropenem at 1:8 meropenem:compound ratio by broth microtiter dilution method; assay type: functional
Klebsiella pneumoniae [3] = test: Potentiation of meropenem-induced antibacterial activity against VIM4 carbapenemase producing multidrug-resistant Klebsiella pneumoniae 101 clinical isolate assessed as MIC of meropenem at 1:8 meropenem:compound ratio by broth microtiter dilution method; assay type: functional
Providencia stuartii [4] = test: Potentiation of meropenem-induced antibacterial activity against VIM1 carbapenemase producing multidrug-resistant Providencia stuartii 67 clinical isolate at 1:8 meropenem:compound ratio by checkerboard method; assay type: functional
Klebsiella pneumoniae [5] = test: Potentiation of meropenem-induced antibacterial activity against VIM1 carbapenemase producing multidrug-resistant Klebsiella pneumoniae 177 clinical isolate assessed as MIC of meropenem at 1:8 meropenem:compound ratio by broth microtiter dilution method; assay type: functional
Providencia stuartii [6] = test: Potentiation of meropenem-induced antibacterial activity against VIM1 carbapenemase producing multidrug-resistant Providencia stuartii 67 clinical isolate assessed as MIC of meropenem at 1:8 meropenem:compound ratio by broth microtiter dilution method; assay type: functional
Pseudomonas aeruginosa [7] = test: Potentiation of meropenem-induced antibacterial activity against VIM2 carbapenemase producing multidrug-resistant Pseudomonas aeruginosa 50 clinical isolate assessed as MIC of meropenem at 1:8 meropenem:compound ratio by broth microtiter dilution method; assay type: functional
Pseudomonas aeruginosa [8] = test: Potentiation of meropenem-induced antibacterial activity against VIM2 carbapenemase producing multidrug-resistant Pseudomonas aeruginosa GR64 clinical isolate assessed as MIC of meropenem at 1:8 meropenem:compound ratio by broth microtiter dilution method; assay type: functional
Pseudomonas aeruginosa [9] = test: Potentiation of meropenem-induced antibacterial activity against VIM2 carbapenemase producing multidrug-resistant Pseudomonas aeruginosa 11 clinical isolate assessed as MIC of meropenem at 1:8 meropenem:compound ratio by broth microtiter dilution method; assay type: functional
Pseudomonas aeruginosa [10] = test: Potentiation of meropenem-induced antibacterial activity against VIM2 carbapenemase producing multidrug-resistant Pseudomonas aeruginosa 12 clinical isolate assessed as MIC of meropenem at 1:8 meropenem:compound ratio by broth microtiter dilution method; assay type: functional
Klebsiella pneumoniae [11] = test: Potentiation of meropenem-induced antibacterial activity against VIM4 carbapenemase producing multidrug-resistant Klebsiella pneumoniae 196 clinical isolate at 1:8 meropenem:compound ratio by checkerboard method; assay type: functional
Klebsiella pneumoniae [12] = test: Potentiation of meropenem-induced antibacterial activity against VIM4 carbapenemase producing multidrug-resistant Klebsiella pneumoniae 120 clinical isolate infected in Galleria mellonella larvae assessed as survival rate at 4.8 mg/kg measured at 96 hrs; assay type: functional; conditions: Klebsiella pneumoniae, 120, 96 h
Pseudomonas aeruginosa [13] = test: Potentiation of meropenem-induced antibacterial activity against VIM2 carbapenemase producing multidrug-resistant Pseudomonas aeruginosa GR62 clinical isolate assessed as MIC of meropenem at 1:8 meropenem:compound ratio by broth microtiter dilution method; assay type: functional
Klebsiella pneumoniae [14] = test: Antibacterial activity against VIM4 carbapenemase producing multidrug-resistant Klebsiella pneumoniae 120 clinical isolate infected in Galleria mellonella larvae assessed as survival rate at 4.8 mg/kg measured at 96 hrs; assay type: functional, organism-based
Pseudomonas aeruginosa [15] = test: Antibacterial activity against VIM2 carbapenemase producing multidrug-resistant Pseudomonas aeruginosa GR57 clinical isolate infected in Galleria mellonella larvae assessed as survival rate at 4.8 mg/kg measured at 96 hrs; assay type: functional, organism-based
Klebsiella pneumoniae [16] = test: Antibacterial activity against VIM1 carbapenemase producing multidrug-resistant Klebsiella pneumoniae GR54 clinical isolate up to 512 mg/L by broth microtiter dilution method; assay type: functional, organism-based
Providencia stuartii [17] = test: Antibacterial activity against VIM1 carbapenemase producing multidrug-resistant Providencia stuartii 67 clinical isolate up to 512 mg/L by broth microtiter dilution method; assay type: functional, organism-based
Pseudomonas aeruginosa [18] = test: Antibacterial activity against VIM2 carbapenemase producing multidrug-resistant Pseudomonas aeruginosa 47 clinical isolate up to 512 mg/L by broth microtiter dilution method; assay type: functional, organism-based
Pseudomonas aeruginosa [19] = test: Antibacterial activity against VIM2 carbapenemase producing multidrug-resistant Pseudomonas aeruginosa 50 clinical isolate up to 512 mg/L by broth microtiter dilution method; assay type: functional, organism-based
Pseudomonas aeruginosa [20] = test: Antibacterial activity against VIM2 carbapenemase producing multidrug-resistant Pseudomonas aeruginosa 8 clinical isolate up to 512 mg/L by broth microtiter dilution method; assay type: functional, organism-based
Pseudomonas aeruginosa [21] = test: Antibacterial activity against VIM2 carbapenemase producing multidrug-resistant Pseudomonas aeruginosa 13 clinical isolate up to 512 mg/L by broth microtiter dilution method; assay type: functional, organism-based
Pseudomonas aeruginosa [22] = test: Antibacterial activity against VIM2 carbapenemase producing multidrug-resistant Pseudomonas aeruginosa 16 clinical isolate up to 512 mg/L by broth microtiter dilution method; assay type: functional, organism-based
Enterobacter cloacae = test: Antibacterial activity against VIM4 carbapenemase producing multidrug-resistant Enterobacter cloacae 102 clinical isolate up to 512 mg/L by broth microtiter dilution method; assay type: functional, organism-based
Klebsiella pneumoniae [23] = test: Antibacterial activity against VIM4 carbapenemase producing multidrug-resistant Klebsiella pneumoniae 101 clinical isolate up to 512 mg/L by broth microtiter dilution method; assay type: functional, organism-based
Klebsiella pneumoniae [24] = test: Antibacterial activity against VIM4 carbapenemase producing multidrug-resistant Klebsiella pneumoniae 120 clinical isolate up to 512 mg/L by broth microtiter dilution method; assay type: functional, organism-based
Klebsiella pneumoniae [25] = test: Antibacterial activity against VIM4 carbapenemase producing multidrug-resistant Klebsiella pneumoniae 196 clinical isolate up to 512 mg/L by broth microtiter dilution method; assay type: functional, organism-based
Pseudomonas aeruginosa [26] = test: Potentiation of meropenem-induced antibacterial activity against VIM2 carbapenemase producing multidrug-resistant Pseudomonas aeruginosa 50 clinical isolate at 1:8 meropenem:compound ratio by checkerboard method; assay type: functional
Pseudomonas aeruginosa [27] = test: Potentiation of meropenem-induced antibacterial activity against VIM2 carbapenemase producing multidrug-resistant Pseudomonas aeruginosa GR57 clinical isolate at 1:8 meropenem:compound ratio by checkerboard method; assay type: functional
Pseudomonas aeruginosa [28] = test: Potentiation of meropenem-induced antibacterial activity against VIM2 carbapenemase producing multidrug-resistant Pseudomonas aeruginosa GR58 clinical isolate at 1:8 meropenem:compound ratio by checkerboard method; assay type: functional
Pseudomonas aeruginosa [29] = test: Potentiation of meropenem-induced antibacterial activity against VIM2 carbapenemase producing multidrug-resistant Pseudomonas aeruginosa GR64 clinical isolate at 1:8 meropenem:compound ratio by checkerboard method; assay type: functional
Pseudomonas aeruginosa [30] = test: Potentiation of meropenem-induced antibacterial activity against VIM2 carbapenemase producing multidrug-resistant Pseudomonas aeruginosa 12 clinical isolate at 1:8 meropenem:compound ratio by checkerboard method; assay type: functional
Pseudomonas aeruginosa [31] = test: Potentiation of meropenem-induced antibacterial activity against VIM2 carbapenemase producing multidrug-resistant Pseudomonas aeruginosa 14 clinical isolate at 1:8 meropenem:compound ratio by checkerboard method; assay type: functional
Pseudomonas aeruginosa [32] = test: Potentiation of meropenem-induced antibacterial activity against VIM2 carbapenemase producing multidrug-resistant Pseudomonas aeruginosa 15 clinical isolate at 1:8 meropenem:compound ratio by checkerboard method; assay type: functional
Pseudomonas aeruginosa [33] = test: Potentiation of meropenem-induced antibacterial activity against VIM2 carbapenemase producing multidrug-resistant Pseudomonas aeruginosa 27 clinical isolate at 1:8 meropenem:compound ratio by checkerboard method; assay type: functional
Klebsiella pneumoniae [34] = test: Potentiation of meropenem-induced antibacterial activity against VIM4 carbapenemase producing multidrug-resistant Klebsiella pneumoniae 101 clinical isolate at 1:8 meropenem:compound ratio by checkerboard method; assay type: functional
Klebsiella pneumoniae [35] = test: Potentiation of meropenem-induced antibacterial activity against VIM4 carbapenemase producing multidrug-resistant Klebsiella pneumoniae 128 clinical isolate at 1:8 meropenem:compound ratio by checkerboard method; assay type: functional

## O=C(O)/C(S)=C/c1c(Cl)ccc(Cl)c1Cl
Pseudomonas aeruginosa [1]
  MIC: 16 µg/mL
Pseudomonas aeruginosa [2]
  MIC: 16 µg/mL
Klebsiella pneumoniae [3]
  MIC: 2 µg/mL
Providencia stuartii [4]
  fractional inhibitory concentration index (FICI): 0.14
Klebsiella pneumoniae [5]
  MIC: 1 µg/mL
Providencia stuartii [6]
  MIC: 1 µg/mL
Pseudomonas aeruginosa [7]
  MIC: 8 µg/mL
Pseudomonas aeruginosa [8]
  MIC: 4 µg/mL
Pseudomonas aeruginosa [9]
  MIC: 2 µg/mL
Pseudomonas aeruginosa [10]
  MIC: 32 µg/mL
Klebsiella pneumoniae [11]
  fractional inhibitory concentration index (FICI): 0.08
Klebsiella pneumoniae [12]
  survival at 4.8 mg/kg: 98%
Pseudomonas aeruginosa [13]
  MIC: 8 µg/mL
Klebsiella pneumoniae [14]
  Activity: Active
Pseudomonas aeruginosa [15]
  Activity: Active
Klebsiella pneumoniae [16]
  Activity: inactive
Providencia stuartii [17]
  Activity: inactive
Pseudomonas aeruginosa [18]
  Activity: inactive
Pseudomonas aeruginosa [19]
  Activity: inactive
Pseudomonas aeruginosa [20]
  Activity: inactive
Pseudomonas aeruginosa [21]
  Activity: inactive
Pseudomonas aeruginosa [22]
  Activity: inactive
Enterobacter cloacae
  Activity: inactive
Klebsiella pneumoniae [23]
  Activity: inactive
Klebsiella pneumoniae [24]
  Activity: inactive
Klebsiella pneumoniae [25]
  Activity: inactive
Pseudomonas aeruginosa [26]
  fractional inhibitory concentration index (FICI): 0.38
Pseudomonas aeruginosa [27]
  fractional inhibitory concentration index (FICI): 0.19
Pseudomonas aeruginosa [28]
  fractional inhibitory concentration index (FICI): 0.38
Pseudomonas aeruginosa [29]
  fractional inhibitory concentration index (FICI): 0.19
Pseudomonas aeruginosa [30]
  fractional inhibitory concentration index (FICI): 0.75
Pseudomonas aeruginosa [31]
  fractional inhibitory concentration index (FICI): 0.06
Pseudomonas aeruginosa [32]
  fractional inhibitory concentration index (FICI): 0.5
Pseudomonas aeruginosa [33]
  fractional inhibitory concentration index (FICI): 0.5
Klebsiella pneumoniae [34]
  fractional inhibitory concentration index (FICI): 0.09
Klebsiella pneumoniae [35]
  fractional inhibitory concentration index (FICI): 0.27
